The source of these data is patent US5401743A, “Aminoalkyl-substituted 2-amino-5-mercaptothiadiazoles the preparation and use thereof” (BASF Aktiengesellschaft, priority 1991, dated 1995).

Counter-ions that a name gives are not always drawn. Like-named read-outs stand apart in the source and are kept apart here.

This assay addresses T1, dopamine D2 receptor (Rattus norvegicus, UniProt P61169).
T1 construct: Striata from rats (Sprague Dawley, Charles River) were homogenized immediately after removal; from tissue; host or cells: rat striatum (Sprague Dawley, Charles River), membranes
In words: Receptor binding assay: affinity for the dopamine D2 receptor (3H-ADTN displacement, rat striatal membranes). Further details: species or system rat (Sprague Dawley). As for the experimental part: The effects of the novel compounds can be shown in the receptor binding assay as follows:
Striata from rats (Sprague Dawley, Charles River) were homogenized immediately after removal in 0.32M sucrose solution (0° C.). The homogenate was filtered through gauze, the filtrate was centrifuged at 1000 xg (5 min at 4° C.) and the resulting supernatant was centrifuged at 40000 xg (4° C., 10 min). The residue (membranes) was taken up in incubation buffer (50 mM tris-HCl, 1 mM MgCl2 and 0.1% ascorbic acid, pH 7.4) and incubated at 37° C. for 20 min. The residue was subsequently washed 2× with incubation buffer by resuspension and recentrifugation. The membranes were frozen in portions in liquid nitrogen.
The assay mixtures (1 ml) were composed of membranes (380 μg of protein), 1 nM ^3 H-ADTN (NEN, Dreieich Germany, specific radioactivity 1.4 TBq/mmol) and 0.1 μM SCH 23390 (total binding) or a) with the addition of 50 nM spiperone (non-specific binding) or b) with test substance. The mixtures were prepared in triplicate.
After the incubation (40 min at 25° C.) the mixtures were filtered through glass fiber filters (Whatman GF/B) and briefly washed with ice-cold washing buffer (Tris-HCl, pH 7.4). The radioactivity retained on the filters was determined by liquid scintillation counting. The non-specific binding comprised about 40-50% of the total binding.
The evaluation of the competition plots and the determination of the dissociation constant took place by iterative non-linear regression analysis based on the "ligand" program (Muson and Rodbard: Anal. Biochem. 107 (1980) 220).
Affinity of the test substances for the dopamine D2 receptor

The mark [1] stands for this setting: rat striatal membranes, 1 nM 3H-ADTN, 0.1 μM SCH 23390, 40 min at 25° C., pH 7.4, non-specific binding with 50 nM spiperone, read-out: Ki (affinity of the test substances for the dopamine D2 receptor).

T1 sequence (P61169 whole entry): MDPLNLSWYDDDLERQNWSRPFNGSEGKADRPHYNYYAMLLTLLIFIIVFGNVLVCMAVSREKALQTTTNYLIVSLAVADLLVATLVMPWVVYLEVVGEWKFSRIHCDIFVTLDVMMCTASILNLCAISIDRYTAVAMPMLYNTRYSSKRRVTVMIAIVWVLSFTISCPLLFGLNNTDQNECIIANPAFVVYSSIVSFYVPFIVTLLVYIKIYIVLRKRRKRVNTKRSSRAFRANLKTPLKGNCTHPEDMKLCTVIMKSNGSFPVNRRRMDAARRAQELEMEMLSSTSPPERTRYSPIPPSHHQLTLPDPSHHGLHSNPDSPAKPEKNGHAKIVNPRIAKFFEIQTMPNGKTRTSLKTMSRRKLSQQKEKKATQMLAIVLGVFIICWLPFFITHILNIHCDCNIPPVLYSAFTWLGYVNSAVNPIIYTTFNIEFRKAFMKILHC

What is called Ki is the equilibrium dissociation constant of an inhibitor or competing ligand from its target. As to `CCOc1ccccc1N1CCN(CCSc2nnc(N)s2)CC1` [Example 11, 2-Amino-5-[2-(4-(2-ethoxyphenyl)piperazinyl)ethylthio]-1,3,4-thiadiazole hydrochloride], under setting [1], the Ki worked out at 0.015 µM.

In the case of `Nc1nnc(SCCN2CCC(c3ccccc3)CC2)s1` [Example 8, 2-Amino-5-[2-(4-phenylpiperidinyl)ethylthio]-1,3,4-thiadiazole hydrochloride], the Ki under setting [1] was found to be 0.045 µM.

With `Nc1nnc(SCCCN2CCN(c3ccc(F)cc3)CC2)s1` [Example 1, 2-Amino-5-[3-(4-fluorophenylpiperazinyl)propylthio]-1,3,4-thiadiazole dihydrochloride], under setting [1], the Ki was 0.125 µM.

`Nc1nnc(SCCN2CC=C(c3ccccc3)CC2)s1` [Example 3, 2-Amino-5-[2-(4-phenyl-1,2,3,6-tetrahydropyridyl)-ethylthio]-1,3,4-thiadiazole dihydrochloride] returned a Ki of 0.012 µM.

In the case of `Cc1cccc(N2CCN(CCCSc3nnc(N)s3)CC2)c1` [Example 14, 2-Amino-5-[3-(4-(3-methylphenyl)piperazinyl)propylthio]-1,3,4-thiadiazole hydrochloride], under setting [1], the Ki turned out to be 0.036 µM.

On to `CCCN(CCCSc1nnc(N)s1)CCc1ccccc1` [Example 9, 2-Amino-5-[3-(2-phenylethyl-n-propylamino)propylthio]-1,3,4-thiadiazole tartrate], for which the inhibition constant Ki under setting [1] was 0.045 µM.

`Nc1nnc(SCCCN2CC=C(c3ccccc3)CC2)s1` [Example 4, 2-Amino-5-[3-(4-phenyl-1,2,3,6-tetrahydropyridyl)-propylthio]-1,3,4-thiadiazole hydrochloride]: the Ki is 0.006 µM.
